Type in all cases: functional
Experiment [1] deals with Candida albicans. Nature of the experiment: Antifungal activity against Candida albicans CPCC400616 assessed as inhibition of fungal growth by CLSI protocol based microdilution method. A general note: In broth dilution the organism is exposed to a series of concentrations in liquid medium.
The test system of the next experiment is Candida tropicalis. In words: Antifungal activity against Candida tropicalis CGMCC 2.3739 assessed as inhibition of fungal growth by CLSI protocol based microdilution method.
Experiment [2] has as its system Candida albicans. In words: Antifungal activity against fluconazole-resistant Candida albicans 904 assessed as inhibition of fungal growth by CLSI based microdilution method.
Experiment [3] has as its system Candida albicans. In words: Antifungal activity against fluconazole-resistant Candida albicans CaR assessed as inhibition of fungal growth by CLSI based microdilution method.
For another experiment, the system named is Nakaseomyces glabratus. Nature of the experiment: Antifungal activity against Candida glabrata assessed as inhibition of fungal growth by CLSI protocol based microdilution method.
In experiment [4] the test system is Candida albicans. In words: Antifungal activity against fluconazole-resistant Candida albicans 901 assessed as inhibition of fungal growth by CLSI based microdilution method.
In experiment [5] the test system is Candida albicans. In words: Antifungal activity against fluconazole-resistant Candida albicans 632 assessed as inhibition of fungal growth by CLSI based microdilution method.
Another experiment has as its system Candida parapsilosis. Nature of the experiment: Antifungal activity against Candida parapsilosis ATCC 22019 assessed as inhibition of fungal growth by CLSI protocol based microdilution method. To be noted: Lodderomyces parapsilosis.
The next experiment concerns Pichia kudriavzevii. In words: Antifungal activity against Candida krusei AS 2.1045 assessed as inhibition of fungal growth by CLSI protocol based microdilution method.
Experiment [6] deals with Candida albicans. Nature of the experiment: Antifungal activity against fluconazole-resistant Candida albicans 17 assessed as inhibition of fungal growth by CLSI based microdilution method.
A further experiment has as its system Aspergillus fumigatus. In words: Antifungal activity against Aspergillus fumigatus CGMCC 3.7795 assessed as inhibition of fungal growth by CLSI protocol based microdilution method.
Experiment [7] concerns Candida albicans. Nature of the experiment: Antifungal activity against Candida albicans SC5314 assessed as inhibition of fungal growth by CLSI protocol based microdilution method.
In a further experiment the test system is Cryptococcus neoformans. Nature of the experiment: Antifungal activity against Cryptococcus neoformans CGMCC2.3161 assessed as inhibition of fungal growth by CLSI protocol based microdilution method.

8 compounds from ChEMBL document CHEMBL5550210, “Discovery of Novel α,β-Unsaturated Amide Derivatives as Candidate Antifungals to Overcome Fungal Resistance” (J Med Chem, 2024) can be followed below.

As a reminder, the MIC is the least concentration at which growth counts as inhibited.

In brackets after ≈: the same amount, converted by molar mass.

`Cc1ccccc1NC(=O)/C=C/c1ccc(COC(Cn2ccnc2)c2ccc(Cl)cc2Cl)cc1` (centres undefined): the minimal inhibitory concentration (MIC) turned out to be 0.125 µg/mL (≈ 0.247 µM) with Candida albicans [1]; 16 µg/mL (≈ 31.6 µM) in the experiment with Candida tropicalis; 2 µg/mL (≈ 3.95 µM) with Candida albicans [2]; 16 µg/mL (≈ 31.6 µM) in the experiment on Candida albicans [3]; 64 µg/mL (≈ 126 µM) in the experiment on Nakaseomyces glabratus; 4 µg/mL (≈ 7.9 µM) in the experiment on Candida albicans [4]. For the same compound, the minimum inhibitory concentration (MIC) in the experiment with Candida albicans [5] was determined as 2 µg/mL (≈ 3.95 µM); in the experiment on Candida parapsilosis, 0.5 µg/mL (≈ 0.987 µM); in the experiment with Pichia kudriavzevii it was 16 µg/mL (≈ 31.6 µM); in the experiment on Candida albicans [6], 128 µg/mL (≈ 253 µM); in the experiment on Aspergillus fumigatus, 2 µg/mL (≈ 3.95 µM); in the experiment with Candida albicans [7] it was 0.03 µg/mL (≈ 0.0592 µM). The MIC with Cryptococcus neoformans came out at 2 µg/mL (≈ 3.95 µM).
For `Cc1ccc(NC(=O)/C=C/c2ccc(COC(Cn3ccnc3)c3ccc(Cl)cc3Cl)cc2)cc1` (centres undefined), the MIC with Candida albicans [1] turned out to be 0.03 µg/mL (≈ 0.0592 µM); with Candida tropicalis, 64 µg/mL (≈ 126 µM); in the experiment with Candida albicans [2], 2 µg/mL (≈ 3.95 µM); in the experiment on Candida albicans [3], 4 µg/mL (≈ 7.9 µM); in the experiment on Nakaseomyces glabratus, 16 µg/mL (≈ 31.6 µM); in the experiment with Candida albicans [4], 1 µg/mL (≈ 1.97 µM). Also, the MIC stood at 0.25 µg/mL (≈ 0.494 µM) with Candida albicans [5]; 0.125 µg/mL (≈ 0.247 µM) in the experiment with Candida parapsilosis; 16 µg/mL (≈ 31.6 µM) in the experiment with Pichia kudriavzevii; 1 µg/mL (≈ 1.97 µM) in the experiment with Candida albicans [6]; 16 µg/mL (≈ 31.6 µM) in the experiment on Aspergillus fumigatus; 0.06 µg/mL (≈ 0.118 µM) with Candida albicans [7]. Besides, the minimum inhibitory concentration (MIC) in the experiment with Cryptococcus neoformans stood at 0.125 µg/mL (≈ 0.247 µM).
Take `O=C(/C=C/c1ccc(COC(Cn2ccnc2)c2ccc(Cl)cc2Cl)cc1)NC1CC1` (centres undefined): the MIC in the experiment with Candida albicans [1] was determined as 0.25 µg/mL (≈ 0.548 µM); with Candida tropicalis it was 4 µg/mL (≈ 8.76 µM); in the experiment on Candida albicans [2] it was 4 µg/mL (≈ 8.76 µM); in the experiment on Candida albicans [3] it was 128 µg/mL (≈ 280 µM); in the experiment on Nakaseomyces glabratus it was 64 µg/mL (≈ 140 µM); in the experiment on Candida albicans [4], 2 µg/mL (≈ 4.38 µM). For the same compound, the MIC came to 1 µg/mL (≈ 2.19 µM) in the experiment on Candida albicans [5]; 1 µg/mL (≈ 2.19 µM) in the experiment with Candida parapsilosis; 64 µg/mL (≈ 140 µM) with Pichia kudriavzevii; 32 µg/mL (≈ 70.1 µM) in the experiment with Candida albicans [6]; 2 µg/mL (≈ 4.38 µM) in the experiment with Aspergillus fumigatus; 0.125 µg/mL (≈ 0.274 µM) in the experiment with Candida albicans [7]. In addition, the minimum inhibitory concentration (MIC) in the experiment on Cryptococcus neoformans amounted to 16 µg/mL (≈ 35.1 µM).
In the case of `O=C(/C=C/c1ccc(COC(Cn2ccnc2)c2ccc(Cl)cc2Cl)cc1)Nc1cccc(Cl)c1` (centres undefined), the MIC in the experiment with Candida albicans [1] turned out to be 0.125 µg/mL (≈ 0.237 µM); in the experiment on Candida tropicalis it was 32 µg/mL (≈ 60.7 µM); in the experiment with Candida albicans [2], 2 µg/mL (≈ 3.8 µM); in the experiment on Candida albicans [3], 128 µg/mL (≈ 243 µM); with Nakaseomyces glabratus it was 64 µg/mL (≈ 121 µM); in the experiment with Candida albicans [4], 4 µg/mL (≈ 7.59 µM). Moreover, the MIC was 2 µg/mL (≈ 3.8 µM) in the experiment on Candida albicans [5]; 0.125 µg/mL (≈ 0.237 µM) in the experiment with Candida parapsilosis; 64 µg/mL (≈ 121 µM) with Pichia kudriavzevii; 128 µg/mL (≈ 243 µM) with Candida albicans [6]; 16 µg/mL (≈ 30.4 µM) with Aspergillus fumigatus; 0.06 µg/mL (≈ 0.114 µM) in the experiment on Candida albicans [7]. Besides, the MIC in the experiment with Cryptococcus neoformans turned out to be 16 µg/mL (≈ 30.4 µM).
Turning to `O=C(/C=C/c1ccc(COC(Cn2ccnc2)c2ccc(Cl)cc2Cl)cc1)Nc1ccc(Cl)cc1` (centres undefined), the MIC turned out to be 0.06 µg/mL (≈ 0.114 µM) in the experiment with Candida albicans [1]; 1 µg/mL (≈ 1.9 µM) with Candida tropicalis; 0.5 µg/mL (≈ 0.949 µM) with Candida albicans [2]; 8 µg/mL (≈ 15.2 µM) in the experiment on Candida albicans [3]; 8 µg/mL (≈ 15.2 µM) with Nakaseomyces glabratus; 1 µg/mL (≈ 1.9 µM) in the experiment with Candida albicans [4]. Besides, the MIC with Candida albicans [5] was 0.5 µg/mL (≈ 0.949 µM); in the experiment with Candida parapsilosis, 0.125 µg/mL (≈ 0.237 µM); in the experiment on Pichia kudriavzevii, 4 µg/mL (≈ 7.59 µM); in the experiment with Candida albicans [6], 128 µg/mL (≈ 243 µM); with Aspergillus fumigatus, 0.5 µg/mL (≈ 0.949 µM); with Candida albicans [7] it was 0.03 µg/mL (≈ 0.0569 µM). Besides, the MIC with Cryptococcus neoformans is 2 µg/mL (≈ 3.8 µM).
`COc1ccc(NC(=O)/C=C/c2ccc(COC(Cn3ccnc3)c3ccc(Cl)cc3Cl)cc2)cc1` (centres undefined): the MIC with Candida albicans [1] came out at 0.03 µg/mL (≈ 0.0574 µM); in the experiment on Candida tropicalis, 4 µg/mL (≈ 7.66 µM); with Candida albicans [2], 4 µg/mL (≈ 7.66 µM); with Candida albicans [3], 4 µg/mL (≈ 7.66 µM); with Nakaseomyces glabratus, 4 µg/mL (≈ 7.66 µM); in the experiment with Candida albicans [4] it was 4 µg/mL (≈ 7.66 µM). The minimum inhibitory concentration (MIC) in the experiment with Candida albicans [5] amounted to 0.25 µg/mL (≈ 0.479 µM); in the experiment on Candida parapsilosis, 0.125 µg/mL (≈ 0.239 µM); in the experiment on Pichia kudriavzevii, 2 µg/mL (≈ 3.83 µM); in the experiment with Candida albicans [6], 2 µg/mL (≈ 3.83 µM); in the experiment on Aspergillus fumigatus, 4 µg/mL (≈ 7.66 µM); in the experiment on Candida albicans [7], 0.06 µg/mL (≈ 0.115 µM). Besides, in the experiment with Cryptococcus neoformans, the MIC is 0.125 µg/mL (≈ 0.239 µM).
Regarding `CNC(=O)/C=C/c1ccc(COC(Cn2ccnc2)c2ccc(Cl)cc2Cl)cc1` (centres undefined), the MIC in the experiment with Candida albicans [1] turned out to be 0.25 µg/mL (≈ 0.581 µM); with Candida tropicalis, 8 µg/mL (≈ 18.6 µM); with Candida albicans [2], 16 µg/mL (≈ 37.2 µM); in the experiment with Candida albicans [3], 128 µg/mL (≈ 297 µM); in the experiment with Nakaseomyces glabratus, 32 µg/mL (≈ 74.4 µM); in the experiment on Candida albicans [4], 16 µg/mL (≈ 37.2 µM). Also, the MIC with Candida albicans [5] amounted to 4 µg/mL (≈ 9.3 µM); in the experiment with Candida parapsilosis it was 4 µg/mL (≈ 9.3 µM); in the experiment with Pichia kudriavzevii it was 16 µg/mL (≈ 37.2 µM); with Candida albicans [6], 128 µg/mL (≈ 297 µM); with Aspergillus fumigatus, 8 µg/mL (≈ 18.6 µM); with Candida albicans [7] it was 0.125 µg/mL (≈ 0.29 µM). Moreover, the MIC in the experiment on Cryptococcus neoformans was determined as 8 µg/mL (≈ 18.6 µM).
Take `NC(=O)/C=C/c1ccc(COC(Cn2ccnc2)c2ccc(Cl)cc2Cl)cc1` (centres undefined): the MIC was 2 µg/mL (≈ 4.8 µM) in the experiment on Candida albicans [1]; 8 µg/mL (≈ 19.2 µM) in the experiment with Candida tropicalis; 32 µg/mL (≈ 76.9 µM) with Candida albicans [2]; 128 µg/mL (≈ 307 µM) in the experiment with Candida albicans [3]; 64 µg/mL (≈ 154 µM) in the experiment on Nakaseomyces glabratus; 32 µg/mL (≈ 76.9 µM) in the experiment with Candida albicans [4]. In addition, the minimum inhibitory concentration (MIC) was found to be 16 µg/mL (≈ 38.4 µM) in the experiment with Candida albicans [5]; 4 µg/mL (≈ 9.61 µM) in the experiment with Candida parapsilosis; 64 µg/mL (≈ 154 µM) in the experiment on Pichia kudriavzevii; 128 µg/mL (≈ 307 µM) in the experiment with Candida albicans [6]; 64 µg/mL (≈ 154 µM) in the experiment on Aspergillus fumigatus; 1 µg/mL (≈ 2.4 µM) in the experiment with Candida albicans [7]. The MIC with Cryptococcus neoformans turned out to be 16 µg/mL (≈ 38.4 µM).
